Reference: ChEMBL document CHEMBL1275562, “Incidence and characteristics of vancomycin nonsusceptible strains of methicillin-resistant Staphylococcus aureus at Hershey Medical Center” (2008)
Converted amounts (≈) assume the structure as drawn.

Tests used:
Assay type in all cases: functional
[1] = test system: Staphylococcus aureus; assay: Antimicrobial activity against vancomycin-intermediate Staphylococcus aureus SA770 after 48 hrs by macro Etest method; conditions: SA770, 48 h
[2] = test system: Staphylococcus aureus; assay: Antimicrobial activity against vancomycin-intermediate Staphylococcus aureus SA1287 after 48 hrs by macro Etest method; conditions: SA1287, 48 h
[3] = test system: Staphylococcus aureus; assay: Antimicrobial activity against vancomycin-intermediate Staphylococcus aureus SA1984 after 48 hrs by macro Etest method; conditions: SA1984, 48 h
[4] = test system: Staphylococcus aureus; assay: Antimicrobial activity against heterogeneous vancomycin-intermediate Staphylococcus aureus SA618 after 48 hrs by macro Etest method; conditions: SA618, 48 h
[5] = test system: Staphylococcus aureus; assay: Antimicrobial activity against heterogeneous vancomycin-intermediate Staphylococcus aureus SA873 after 48 hrs by macro Etest method; conditions: SA873, 48 h
[6] = test system: Staphylococcus aureus; assay: Antimicrobial activity against vancomycin-susceptible Staphylococcus aureus SA662 after 48 hrs by macro Etest method; conditions: SA662, 48 h
[7] = test system: Staphylococcus aureus; assay: Antimicrobial activity against vancomycin-susceptible Staphylococcus aureus SA2089 after 48 hrs by macro Etest method; conditions: SA2089, 48 h

Compound | MIC [1] | MIC [2] | MIC [3] | MIC [4] | MIC [5] | MIC [6] | MIC [7]
CC(=O)N[C@@H]1[C@H](Oc2c3cc4cc2Oc2ccc(cc2Cl)[C@@H](O[C@@H]2O[C@@H](CO)[C@@H](O)[C@H](O)[C@@H]2NC(C)=O)[C@@H]2NC(=O)[C@H](NC(=O)[C@@H]4NC(=O)[C@H]4NC(=O)[C@@H](Cc5ccc(c(Cl)c5)O3)NC(=O)[C@H](N)c3ccc(O)c(c3)Oc3cc(O)cc4c3)c3ccc(O)c(c3)-c3c(O[C@H]4O[C@H](CO)[C@@H](O)[C@@H](O)[C@@H]4O)cc(O)cc3[C@@H](C(=O)O)NC2=O)O[C@@H](CO)[C@@H](O)[C@@H]1O | 24 µg/mL (≈ 13.6 µM) | 8 µg/mL (≈ 4.53 µM) | 8 µg/mL (≈ 4.53 µM) | 24 µg/mL (≈ 13.6 µM) | 12 µg/mL (≈ 6.79 µM) | 12 µg/mL (≈ 6.79 µM) | 12 µg/mL (≈ 6.79 µM)
CN[C@H](CC(C)C)C(=O)N[C@H]1C(=O)N[C@@H](CC(N)=O)C(=O)N[C@H]2C(=O)N[C@H]3C(=O)N[C@H](C(=O)N[C@H](C(=O)O)c4cc(O)cc(O)c4-c4cc3ccc4O)[C@H](O)c3ccc(c(Cl)c3)Oc3cc2cc(c3O[C@@H]2O[C@H](CO)[C@@H](O)[C@H](O)[C@H]2O[C@H]2C[C@](C)(N)[C@H](O)[C@H](C)O2)Oc2ccc(cc2Cl)[C@H]1O [VANCOMYCIN] | 6 µg/mL (≈ 4.14 µM) | – | 6 µg/mL (≈ 4.14 µM) | 3 µg/mL (≈ 2.07 µM) | 3 µg/mL (≈ 2.07 µM) | – | 3 µg/mL (≈ 2.07 µM)
